Results: PubChem BioAssay (NCI)
Where “and” joins values, the source holds several entries; their conditions need not be identical. Equal entries are not always repeated.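 Dose response: 5 concentrations. Exposure: 48 h. Format: 96-well plates. Endpoint: linear interpolation; highest concentration if not reached. GI50 is the concentration that inhibits growth by half. TGI: total growth inhibition.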

Key:
Assay in all cases: NCI tumour cell line growth inhibition, 48 h
[1] = tested on: ACHN renal
[2] = tested on: DU-145 prostate
[3] = tested on: EKVX NSCLC
[4] = tested on: NCI/ADR-RES ovarian
[5] = tested on: OVCAR-5 ovarian
[6] = tested on: PC-3 prostate
[7] = tested on: SF-268 CNS
[8] = tested on: SK-MEL-28 melanoma
[9] = tested on: SK-MEL-5 melanoma
[10] = tested on: UACC-257 melanoma

SMILES | GI50 [1] | TGI [1] | GI50 [2] | TGI [2] | GI50 [3] | TGI [3] | GI50 [4] | TGI [4] | GI50 [5] [µM] | TGI [5] | GI50 [6] | TGI [6] | GI50 [7] [µM] | TGI [7] | GI50 [8] | TGI [8] | GI50 [9] [µM] | TGI [9] | GI50 [10] | TGI [10]
O=C1C(=O)c2c(nc3ccc(Br)cn23)-c2ccccc21 | 0.452 µM | 1.55 µM | 0.483 µM | 1.03 µM | 1.54 µM | 3.31 µM | 0.699 µM | 3.87 µM | 1.78 | 3.25 µM | 0.688 µM | 2.47 µM | 0.543 | 1.97 µM | 0.606 µM | 1.56 µM | 0.317 | 0.788 µM | 0.747 µM | 2.09 µM
O=C1Nc2c(C(F)(F)F)cccc2[C@@]1(c1ccc(O)cc1)c1ccc(OC(F)(F)F)cc1 | 0.0178 µM | 0.0349 µM | 0.0303 µM | 0.0866 µM | 0.0134 µM | 0.0351 µM | < 0.01 µM | < 0.0105 µM | 0.0333 | 16 µM | < 0.0141 µM | 0.388 µM | 0.327 | 17.5 µM | 13.3 µM | 27.7 µM | 0.2 | 16.6 µM | 0.938 µM | 20.1 µM
COc1ccc(C(SCC(N)C(=O)O)(c2ccccc2)c2ccccc2)cc1 (stereo not given) | 3.73 µM | > 100 µM | 0.272 µM | 0.7 µM | 0.436 µM | > 100 µM | 2.12 µM | 33.7 µM | 4.82 | > 100 µM | 0.185 µM | > 100 µM | 0.0877 | 71.5 µM | 3.12 µM | > 100 µM | 0.0623 | 19.7 µM | 26.3 µM | > 100 µM
NC1CCC(Nc2nc(NCc3ccc(-c4cccs4)nc3)c3ncn(C4CCCC4)c3n2)CC1 (stereo not given) | 0.276 µM | 1.01 µM | 0.0933 µM | 4.42 µM | 0.0426 µM | 0.762 µM | 0.244 µM | 4.29 µM | 0.0302 | 2.58 µM | 0.0337 µM | 1.04 µM | 0.0188 | 1.08 µM | 0.0296 µM | 0.117 µM | 0.28 | 1.28 µM | 0.0568 µM | 0.295 µM
CCN(CC)CCOc1ccccc1/C=C/c1noc2ccccc12 |  | 25.9 µM |  | 29.1 µM |  | 31.9 µM |  | 38.8 µM |  | 25.1 µM |  | 19.8 µM |  | 37 µM |  | 21.1 µM |  | 16.5 µM |  | 15.3 µM
CC1=CC(=C(c2ccc(N)cc2)c2ccc(N)cc2)C=CC1=N | 3.9 µM and 5.01 µM | 18.1 µM and 44.9 µM and 24.3 µM | 2.07 µM and 3.92 µM | 15.2 µM and > 40.3 µM and 14.2 µM | 1.37 µM and 2.23 µM | 20 µM and 70.8 µM and 41.5 µM | 9.31 µM and 25.7 µM | 46.6 µM and 61.9 µM and > 100 µM | 3.42 | 14.4 µM and > 71.9 µM and > 100 µM | 0.553 µM and 2.58 µM | 10.6 µM and 18.2 µM and 10.1 µM | 0.668 | 14.4 µM and 19.4 µM and 14.5 µM | 0.789 µM and 4.57 µM | 7.89 µM and 36.8 µM and 19.6 µM | 0.928 | 2.3 µM and 5.45 µM and 3.41 µM | 2.4 µM and 3.1 µM | 14.4 µM and 19 µM and 10.7 µM
CCCCCCCCN(CCCCCCCC)CCCCCCNc1cc(OC)cc2cccnc12 | 11 µM | 23.7 µM | 2.1 µM | 4.52 µM | 6.82 µM | 24 µM | 10.4 µM | 23.4 µM | 15.3 | 29.6 µM | 4.18 µM | 19 µM | 12.7 | 30 µM | 13.6 µM | 27.1 µM | 8.53 | 21.1 µM | 2.2 µM | 5.62 µM
COc1cc(OC)c(/C=C\c2ccnc3ccccc23)c(OC)c1 |  | 17.5 µM |  | 17.2 µM |  | 17.7 µM |  | 10.2 µM |  | 19.3 µM |  | 23 µM |  | 22.8 µM |  | 17.9 µM |  | 5.88 µM |  | 17.8 µM
Cc1cc(O)ccc1C1=NN(c2ccc(S(C)(=O)=O)cc2)C(=O)CC1 | 37.8 µM | > 100 µM | 24.7 µM | > 100 µM | 57.9 µM | > 100 µM | 3.26 µM | > 100 µM | 53.8 | > 100 µM | 14.8 µM | > 100 µM | 40 | > 100 µM | 9.55 µM | > 100 µM | 5.49 | > 100 µM | 5.65 µM | > 100 µM
COc1ccc2c(c1)[n+](=O)c(C(=O)c1ccco1)c(C(F)(F)F)n2[O-] | 0.514 µM | 2.53 µM | 2.12 µM | 14.5 µM | 3.47 µM | 9.81 µM | 2 µM | 6.57 µM | 3.51 | 22.3 µM | 4.64 µM | > 100 µM | 3.41 | 33.2 µM | 12.3 µM | 94.9 µM | 1.31 | 2.68 µM | 1.44 µM | 4.83 µM
O=C(c1ccccc1)c1ccc(Oc2ccc([N+](=O)[O-])cc2[N+](=O)[O-])cc1 | 3.72 µM | 13.6 µM | 3.33 µM | 12.8 µM | 13.2 µM | 38.4 µM | 4.12 µM | 65.3 µM | 3.43 | 24.1 µM | 5.66 µM | > 100 µM | 3.3 | 11.9 µM | 7.03 µM | 36.7 µM | 2.02 | 4.42 µM | 7.05 µM | 29.2 µM
NC(=O)c1ccc(NN=O)nc1 |  | > 100 µM |  | > 100 µM |  | > 100 µM |  | > 100 µM |  | > 100 µM |  | > 100 µM |  | > 100 µM |  | > 100 µM |  | > 100 µM |  | > 100 µM
